Series [1] deals with Male Fischer F-344 rats. Nature of the series: Attenuation of stress-induced hyperthermia in rats. In kind it is in vivo. As to conditions: rat, 1-hr pretreatment, relative to vehicle response. The source says:
In many anxiety disorders, hyperthermia occurs as part of the pathology and is considered a symptom of the disease. Compounds which attenuate stress-induced hyperthermia in animals are believed to be useful in treating anxiety disorders in humans. Generalized anxiety disorder and post traumatic stress disorder are among the disorders that may be treated with such compounds. The conventional and minimally-invasive method for analyzing stress-induced hyperthermia is by measuring body temperature, and stress-induced increases in body temperature, via rectal thermometer. Male Fischer F-344 rats (Harlan, Indianapolis, Ind., USA) weighing between 275-350 g are tested. All animals are individually-housed with food and automated water available ad libitum, and maintained on a 12 h light/dark cycle (lights on at 06:00). Animals are fasted for approximately 12-18 hours before the experiment, which is conducted during the light phase. Rats are dosed intraperitoneal (IP) in a dose volume of 1 mL/kg with compounds of the invention in the range of 0.3, 1, 3, and 10, mg/kg. […]
After the pretreatment period, rats are taken individually to a brightly lit adjacent room where baseline body temperatures are determined by insertion of a rectal probe lubricated with mineral oil. Body temperature is assessed using a […] […] Ten minutes later a second body temperature measurement is recorded (T2). […]

Series [2] concerns the target T1, human mGlu2 receptor (Homo sapiens, UniProt Q14416).
T1 construct: expressed in transfected cells; host or cells: AV-12 cells (Syrian hamster fibroblasts), co-transfected with rat EAAT1 and Galpha15
Description: Human mGlu2 agonist FLIPR assay. The format is cell-based. As to conditions: AV-12 cells expressing human mGlu2, EAAT1 and Gα15; relative EC50; ±5.9 SEM, n=3; read-out: EC50 in the hmGlu2 FLIPR assay. The source says: (§1) AV-12 cell lines, derived from Syrian Hamster fibroblasts and stably expressing the human mGlu2 or mGlu3 receptor and co-transfected with the rat glutamate transporter EAAT 1 (Excitatory Amino Acid Transporter 1) and the Gα15 subunit, are used for these studies. The expression of Gα15 allows Gi-coupled receptors to signal through the phospholipase C pathway, resulting in the ability to measure receptor activation by a fluorometric calcium response assay. […] Intracellular calcium levels are monitored before and after the addition of compounds using a Fluorometric Imaging Plate Reader (FLIPR, Molecular Devices). […] Results are analyzed using Prism v4.03 (GraphPad Software). […] After taking an initial 5-sec fluorescent read on the FLIPR instrument, a compound of the invention is added to the cell plate (50 μL per well). […] The compound effect is measured as maximal minus minimal peak heights in relative fluorescent units (RFUs) corrected for basal fluorescence measured in the absence of glutamate. […] Agonist effects are quantified as percent stimulation induced by compound alone relative to the maximal glutamate response. All data are calculated as relative EC50 values using a four-parameter logistic curve fitting program (ActivityBase v5.3.1.22).

For series [3], the system named is male Sprague-Dawley rats. Nature of the series: Reversal of persistent pain induced by formalin injection. The format is in vivo. The note with it: ip, dosed 1 hour prior to intraplantar formalin, rat.
Series [4] addresses T2, human mGlu3 receptor (Homo sapiens, UniProt Q14832).
T2 construct: expressed in transfected cells; host or cells: AV-12 cells (Syrian hamster fibroblasts), co-transfected with rat EAAT1 and Galpha15
Nature of the series: Human mGlu3 agonist FLIPR assay. The format is cell-based. As to conditions: AV-12 cells expressing human mGlu3, EAAT1 and Gα15; relative EC50; ±52.5 SEM, n=8; read-out: EC50 in the hmGlu3 FLIPR assay.
Text: as §1

In series [5] the test system is male, Sprague-Dawley rats. Description: Reversal of phencyclidine (PCP)-induced hyperlocomotor activity in rats. In kind it is in vivo, rat. From the text: Motor activity is monitored by placing individual male, Sprague-Dawley (Harlan, Indianapolis, Ind.) rats in transparent, plastic shoe-box cages of the dimensions 45×25×20 cm, with 1 cm depth of wood chips as bedding, and a metal grill on top of the cage. Motor monitors (Kinder Scientific) consist of a rectangular rack of 12 photobeams arranged in an 8×4 formation, (or a high density grouping of 22 in a 15×7 pattern) at a height of 5 cm, with a second rack (for measuring rearing behaviors) at a height of 15 cm. The shoe box cage is placed inside of these racks, with the racks on a 3 foot high tabletop in an isolated room. A compound of the invention (active) is dosed (intraperitoneal route) within a range of 0.3-10 mg/kg, 30 minutes prior to a 5 mg/kg challenge dose of phencyclidine (PCP). A compound of the invention (prodrug) is orally dosed within a range of 0.3-30 mg/kg, in overnight fasted rats, 4 hours prior to a 5 mg/kg challenge dose of PCP. On the test day, rats are placed in the test cage and allowed to acclimate for 30 minutes prior to PCP challenge; rats are monitored for an additional 60 minutes following PCP administration.
Data analysis and ED50 calculations are conducted using GraphPad Prism (San Diego, Calif. USA). Power analyses have determined that 8-10 rats per group are needed to have appropriate statistical power for detecting treatment differences (power=0.8). A one-way analysis of variance (ANOVA) with a post-hoc Dunnett's multiple comparison test is conducted on the total 60 minute locomotor activity. ED50 calculations are performed using non-linear regression curve fitting on percent reversal transformed data for each dose.

The target in series [6] is T3, hPepT1 (Homo sapiens, UniProt P46059).
T3 construct: expressed in transfected cells; host or cells: HeLa cells (ATCC), transient transfection with PepT1 DNA using FuGene6
T3 sequence (P46059 1-708): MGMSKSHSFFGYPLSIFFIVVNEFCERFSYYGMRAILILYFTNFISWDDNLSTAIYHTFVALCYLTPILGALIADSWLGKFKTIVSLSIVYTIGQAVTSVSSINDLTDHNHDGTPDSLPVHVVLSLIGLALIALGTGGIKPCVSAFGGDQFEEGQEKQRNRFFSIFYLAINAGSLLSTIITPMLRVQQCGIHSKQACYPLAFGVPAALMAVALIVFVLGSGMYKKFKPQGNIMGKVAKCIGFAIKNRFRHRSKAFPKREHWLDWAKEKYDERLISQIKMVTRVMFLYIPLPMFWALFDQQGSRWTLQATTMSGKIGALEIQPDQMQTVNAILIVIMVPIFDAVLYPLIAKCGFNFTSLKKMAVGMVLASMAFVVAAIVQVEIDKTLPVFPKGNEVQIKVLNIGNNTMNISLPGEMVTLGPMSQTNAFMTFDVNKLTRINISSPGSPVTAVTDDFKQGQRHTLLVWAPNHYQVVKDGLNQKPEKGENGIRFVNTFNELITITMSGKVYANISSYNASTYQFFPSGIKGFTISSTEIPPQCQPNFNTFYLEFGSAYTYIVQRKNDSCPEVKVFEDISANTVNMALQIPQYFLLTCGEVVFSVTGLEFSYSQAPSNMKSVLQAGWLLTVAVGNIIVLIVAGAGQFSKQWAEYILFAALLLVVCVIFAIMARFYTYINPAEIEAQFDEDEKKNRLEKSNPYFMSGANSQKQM
Nature of the series: In vitro PepT1 GlySar inhibition screen and IC50 determination. The format is cell-based. The note with it: PepT1 transiently transfected HeLa cells. Here is the method: HeLa cells, […], (American Type Culture Collection) are grown in Hyclone Medium (Invitrogen, Cat# SH30243) containing 10% fetal bovine serum (FBS), 0.1 mM non essential amino acids (NEAA), and 100 units/mL penicillin with 100 μg/mL streptomycin at 37° C. in a 5% CO2 humidified atmosphere. The cell line is used for up to 40 passages and then discarded. Frozen cells in 1 ml vials are thawed in water bath for 1-2 minutes and added to 5 mL of cell medium at 37° C. Each of the T-flasks is provided with 8.5 mL of the fresh medium and 1.5 mL of the cell stock. Cells are passaged twice during a week. This is achieved by rinsing the flasks with 10 mL of phosphate buffered saline-ethylene diaminetetra acetic acid (PBS-EDTA), adding 2 mL of trypsin for 2-5 minutes, to detach the cells, and adding 8 mL of fresh medium to inhibit further activity of trypsin. Each new flask receives a combination of 8.5 mL of fresh medium and 1.5 mL of cell stock, in order to obtain 1:6 cell dilution. Cells are incubated at 37° C., until ready for the uptake study.
Cells that are 70-80% confluent in the T-flasks are plated 1 day prior to the transfection procedure. The flask with the cell stock is treated with PBS-EDTA and trypsin to detach the cells, and transfection medium is used from this point. Transfection medium consists of Dulbecco's Modified Eagle Medium (DMEM)+NEAA. To each well, 0.5 mL of the cell mixture is added (1.3×10^5 is the desired cell concentration) and the cells are incubated at 37° C. overnight. Twenty four hours before the assay, cells are transfected with PEPT1. Transfection mixture is prepared by mixing 600 μL of serum free transfection medium, 18 μL of FuGene6 (Roche Diagnostics), and 11 μg of the PepT1 DNA. The transfection reagent-DNA complex is incubated for 20 minutes and 24 μL of the reagent-DNA complex is added to each well.
J. Pharm. Exper Ther. 310:437-445). […] Uptake media consists of 140 mM NaCl, 5.4 mM KCl, 1.8 mM CaCl2, 0.8 mM MgSO4, 5 mM Glucose, 25 mM tris(hydroxymethyl)aminomethane buffer (TRIS). The solution is then brought to pH 6.0 using 2-(N-morpholino)ethanesulfonic acid. The incubation volume is 500 μL and is performed at room temperature for 3 minutes. To stop the uptake at the conclusion of the incubation time, the uptake media is aspirated off of the cell monolayer and 500 μL of ice cold PBS added to the well. The cells are washed 3 times with 500 μL of room temperature PBS without Ca^+2 and Mg^+2. The cells are then lysed with 300 μL of 1% Triton X100 H2O solution. […] A no inhibitor control is established and the percent inhibition of each prodrug is calculated with respect to this control.
The incubation and sampling procedures are exactly the same as the PepT1 screen described above.

For series [7] the following is noted: 1 h, 10 µM, pH 7.4.
Description: Frozen human duodenum intestinal homogenates (1:2 tissue:buffer ratio using 100 mM Tris Phosphate buffer, pH 7.4) are obtained from Celsius In Vitro Technologies (Baltimore, Md.) that were both phenylmethylsulphonylfluoride (PMSF) and EDTA free.
All original tissue collections are performed at 4° C. and immediately frozen at −70° C. Human intestinal homogenates are thawed and diluted to a final protein concentration of 0.5 mg/mL in 100 mM PBS buffer, pH 7.4 immediately prior to the incubations.
Incubations are conducted in 96-well plates and all prodrugs are run in duplicate on each day. Stock prodrug solutions are prepared in water at a concentration of 1 mM. A 200 μL aliquot of 0.5 mg/mL intestinal homogenate and 196 μL of 100 mM PBS buffer are placed in a 96-well plate in a 37° C. water bath. Using a 96-well pipettor, 4 μL of the 1 mM prodrug solution is transferred into the homogenate. Immediately after addition of the prodrug (time zero) and after 1 hour incubation, 50 μL samples of the incubation mixture are removed using an automated disposable simultaneous 96 well pipettor and added directly to 200 μL of methanol quench solution containing 100 ng/mL of Internal Standard. The samples are then centrifuged at 3500 rpm for 5 minutes at 10° C. The supernatant (200 μL) is transferred to a final 96 well PCR plate and sealed for analysis by LC/MS/MS.
Concentrations of hydrolyzed active metabolite in the incubation mixtures are determined using LC/MS/MS detection on a Sciex API 4000 quadrapole mass spectrometer with Analyst version 1.4.2, TurbolonSpray, positive ionization, and Selected Reaction Monitoring (SRM). […]
Averages and standard deviations are calculated using Microsoft® Office Excel® 2007. Amount of hydrolysis is determined as a molar percentage of active metabolite formed relative to prodrug concentration added.

A word on the pEC50: it is −log10 of the EC50, conventionally taken in molar units. A word on the ED50: it is the dose at which the effect has come halfway, by size or by number of responders. What is called pIC50 is the IC50 on a negative log10 scale, so that one unit is a factor of ten. As a reminder, the inhibition is the percentage by which the read-out fell short of the control.

SMILES strings stand for the structures. pEC50, pIC50: −log10 of the molar value.

T1 sequence (Q14416 19-872): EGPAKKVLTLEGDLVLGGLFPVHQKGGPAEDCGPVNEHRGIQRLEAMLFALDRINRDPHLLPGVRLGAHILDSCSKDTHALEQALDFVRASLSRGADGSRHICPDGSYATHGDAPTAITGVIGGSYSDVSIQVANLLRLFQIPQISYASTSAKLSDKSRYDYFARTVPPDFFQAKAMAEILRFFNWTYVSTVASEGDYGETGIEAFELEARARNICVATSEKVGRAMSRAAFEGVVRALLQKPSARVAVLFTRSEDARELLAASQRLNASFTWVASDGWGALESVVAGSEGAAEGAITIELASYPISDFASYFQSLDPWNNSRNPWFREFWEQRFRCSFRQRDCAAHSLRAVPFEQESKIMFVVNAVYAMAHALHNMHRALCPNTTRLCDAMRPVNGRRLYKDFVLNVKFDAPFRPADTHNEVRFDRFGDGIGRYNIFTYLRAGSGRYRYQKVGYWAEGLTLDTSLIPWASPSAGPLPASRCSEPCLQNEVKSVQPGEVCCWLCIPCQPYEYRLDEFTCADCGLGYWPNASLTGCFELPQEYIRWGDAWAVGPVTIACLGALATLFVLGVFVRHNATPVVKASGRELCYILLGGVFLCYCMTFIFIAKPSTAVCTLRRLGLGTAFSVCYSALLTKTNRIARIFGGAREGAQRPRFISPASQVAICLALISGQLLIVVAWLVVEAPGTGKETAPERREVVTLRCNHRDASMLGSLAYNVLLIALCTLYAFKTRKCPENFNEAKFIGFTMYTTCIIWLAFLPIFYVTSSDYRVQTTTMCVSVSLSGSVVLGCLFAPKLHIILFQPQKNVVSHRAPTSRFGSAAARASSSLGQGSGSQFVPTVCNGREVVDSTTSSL
T2 sequence (Q14832 23-879): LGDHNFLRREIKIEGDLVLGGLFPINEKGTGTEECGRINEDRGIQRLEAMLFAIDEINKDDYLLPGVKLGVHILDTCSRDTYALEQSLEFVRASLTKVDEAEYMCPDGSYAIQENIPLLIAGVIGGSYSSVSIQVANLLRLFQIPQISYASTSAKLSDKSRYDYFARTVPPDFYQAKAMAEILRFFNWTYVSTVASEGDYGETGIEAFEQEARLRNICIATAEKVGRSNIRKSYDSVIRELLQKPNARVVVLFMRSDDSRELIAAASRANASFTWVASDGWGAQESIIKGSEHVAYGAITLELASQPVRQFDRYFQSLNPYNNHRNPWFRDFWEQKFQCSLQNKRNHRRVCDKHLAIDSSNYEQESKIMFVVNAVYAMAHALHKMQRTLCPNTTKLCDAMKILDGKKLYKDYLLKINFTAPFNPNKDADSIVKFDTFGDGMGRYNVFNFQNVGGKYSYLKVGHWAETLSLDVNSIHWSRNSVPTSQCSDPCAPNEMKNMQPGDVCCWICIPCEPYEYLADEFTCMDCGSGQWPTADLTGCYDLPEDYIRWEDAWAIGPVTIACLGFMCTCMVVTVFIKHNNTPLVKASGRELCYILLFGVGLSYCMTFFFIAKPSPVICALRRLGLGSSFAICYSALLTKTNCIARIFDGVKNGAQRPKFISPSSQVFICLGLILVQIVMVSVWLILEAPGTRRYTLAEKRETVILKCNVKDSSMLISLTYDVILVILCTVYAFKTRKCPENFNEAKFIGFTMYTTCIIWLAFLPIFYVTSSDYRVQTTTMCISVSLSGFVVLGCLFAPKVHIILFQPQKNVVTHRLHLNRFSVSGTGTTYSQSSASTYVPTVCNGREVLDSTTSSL

Consider `N[C@@]1(C(=O)O)CC2(CC2)[C@H]2[C@H](C(=O)O)[C@H]21` [Example 2, (1S,2S,5R,6S)-2-Aminospiro[bicyclo[3.1.0]hexane-4,1′-cyclopropane]-2,6-dicarboxylic acid], for which, in series [1], the “T35 (dose producing a 35% reduction in stress-induced hyperthermic response)” value came out at 0.57 mg/kg. The pEC50 is 7.41 in series [2] and 6.55 in series [4]. Also, the ED50 in series [3] is 0.7 mg/kg; in series [5] (0.5 h, i.p., 30 minutes prior to 5 mg/kg PCP, rat), 1.46 mg/kg.
Consider `C[C@H](N)C(=O)N[C@@]1(C(=O)O)CC2(CC2)[C@H]2[C@H](C(=O)O)[C@H]21.Cl` [Example 5, (1S,2S,5R,6S)-2-[[(2S)-2-Aminopropanoyl]amino]spiro[bicyclo[3.1.0]hexane-4,1′-cyclopropane]-2,6-dicarboxylic acid hydrochloride], for which the “T35 (dose producing a 35% reduction in stress-induced hyperthermic response)” value in series [1] stood at 6.4 mg/kg. Further, the ED50 in series [5] (Rattus norvegicus, p.o., overnight fasted rats, 4 hours prior to 5 mg/kg PCP) was determined as 2.95 mg/kg. Besides, in series [6] (0.0625 to 25 mM, read-out: hPepT1 [3H]Gly-Sar uptake inhibition IC50), the pIC50 is 2.70. The inhibition at 5000 µM in series [6] (pH 6.0, 3 minutes, read-out: hPepT1 [3H]Gly-Sar uptake inhibition at 5 mM) was found to be 89%. The “human intestinal hydrolysis relative to Internal Prodrug A” value in series [7] was 36%.

Source of the values: patent US8575214B2, “MGlu 2/3 agonists” (Eli Lilly and Company, priority 2012, dated 2013).
